Columns and labels:
Assay type in all cases: biochemical
[1] = molecular target: T1, reverse transcriptase Superscript II (Moloney murine leukemia virus, UniProt P03355, D1183G/D1242N/E1221Q); experiment: Reverse transcription activity of Superscript II at elevated temperature (cDNA synthesis from in vitro transcribed RNA, denaturing agarose electrophoresis, autoradiography); details: for electrophoretic pattern: full length cDNAs versus short products from prematurely terminated synthesis: reaction at 60° C., 20% of the substance and 20% glycerol in buffer (Lane 3 condition)
T1 construct: Superscript II is known as a reverse transcriptase (RNA-dependent DNA polymerase)
Procedure: To examine reverse transcription activity of Superscript II at an elevated temperature, cDNAs were synthesized using RNAs transcribed in vitro by T7 RNA polymerase as template and the products were evaluated. By using RNAs as a template transcribed in vitro and evaluating the products by electrophoresis, reverse transcription efficiencies of the samples can be compared with one another and thereby non-specific transcription termination which leads to premature termination of reverse transcription and/or reduction of reaction efficiency can be evaluated. The template RNAs were prepared by transcribing pBluescript II SK, which had been cleaved into a linear form with a restriction enzyme NotI, with T7 RNA polymerase in vitro. This reaction was initiated from T7 promoter described in the instruction of pBluescript II SK.
As a control, the following standard buffer condition was used: 50 mM Tris-HCl, pH 8.3, 75 mM KCl, 3 mM MgCl2, 10 mM dithiothreitol, each 0.75 mM of dNTPs (dATP, dGTP, dCTP and dTTP).
In the above standard buffer condition, 1 μg of template RNA, 400 ng of primer (20mer SK primer, […]) and 200 units of Superscript II were prepared and the final volume was adjusted to 20 μl. 0.2 μl of [α-^32P] dGTP was used for labeling of reverse transcription products. The RNA and the primer were incubated at 65° C. before the other substrates were added. Then, the reaction was performed at 42° C. for 1 hour. The reaction products were subjected to denatured agarose electrophoresis and electrophoretic patterns were examined by autoradiography to evaluate recoveries of full length cDNAs and rates of short products obtained from incomplete elongation. The results are shown in Lane 1 of FIG. 1.
The following buffer condition for reverse transcription was used to verify that addition of oligosaccharide stabilizes the enzyme reaction: 50 mM Tris-HCl, pH 8.3, 75 mM KCl, 3 mM MgCl2, 10 mM dithiothreitol, each 0.75 mM of dNTPs (dATP, dGTP, dCTP, dTTP), 20% (w/v) trehalose and 20% (v/v) glycerol.
1 μg of template RNA, 400 ng of primer (20 mer SK primer) and 200 units of Superscript II were reacted in 24 μl of aqueous solution under the above buffer condition. 0.2 μl of [α-^32P] dGTP was used for labeling of reverse transcription products. […] The primer and the template RNAs were annealed at 37° C. for 2 minutes and the enzyme activity was measured at 60° C.
The reaction products were subjected to denaturing agarose electrophoresis as described above, and electrophoretic patterns were examined by autoradiography to evaluate recoveries of full length cDNAs and rates of short products obtained from incomplete elongation.

[2] = test system: restriction enzyme Sty I; experiment: Sty I restriction enzyme digestion of λ DNA at 37-60° C. (agarose gel, image analysis of 1 kbp band); details: suitable concentration; betaine 0-0.6M or sarcosine 0-3.6M; 37, 45, 50, 55 or 60° C. for 1 hour
Procedure: Reaction solutions (20 μl each) containing a restriction enzyme, Sty I 0.5 units, its substrate, λ DNA 0.5 μg and betaine 0-0.6M or sarcosine 0-3.6M were incubated at 37, 45, 50, 55 or 60° C. for 1 hour. In order to prevent initiation of enzyme reaction before the incubation, the samples were quickly prepared on ice. Upon incubation, 0.25% bromophenol blue, 0.26% XC (xylene cyanol), 30% glycerol and 120 mM EDTA (4 μl) was added to the reaction solution to terminate the reaction. The resulting solution was heated at […] for 5 minutes to melt cos sites and subjected to electrophoresis using 0.8% agarose gel containing 0.05% EtBr.
After electrophoresis, image analysis of the gels was conducted. Enzyme activity was represented by comparing strength of bands appeared at 1 kbp (with arrow). Regarding the samples using betaine, the standard (100) is the band strength obtained from the sample using 0 M of betaine and incubated at 37° C. Regarding the samples using sarcosine, the standard (100) is the band strength obtained from the sample using 0 M of sarcosine and incubated at 37° C.

[3] = molecular target: T1, reverse transcriptase Superscript II; experiment: Reverse transcription activity of Superscript II at elevated temperature (cDNA synthesis from in vitro transcribed RNA, denaturing agarose electrophoresis, autoradiography)

Row | Molecule | electrophoretic pattern: full length cDNAs versus short products from prematurely terminated synthesis [1] | further results
1 | OC[C@@H](O)[C@H](O)[C@@H](O)CO [xylitol] | the amount of products obtained from prematurely terminated synthesis became very small and full length products were synthesized | 
2 | OC[C@@H](O)[C@@H](O)[C@H](O)[C@@H](O)CO [sorbitol] | the amount of products obtained from prematurely terminated synthesis became very small and full length products were synthesized | 
3 | O=C(CO)[C@@H](O)[C@H](O)[C@H](O)CO [levulose] | the amount of products obtained from prematurely terminated synthesis became very small and full length products were synthesized | 
4 | C[N+](C)(C)CC(=O)O [betaine] | the amount of products obtained from prematurely terminated synthesis became very small and full length products were synthesized | thermal activation of restriction enzyme (relative activity of Sty I) [2]: thermally activated
5 | OC[C@H]1O[C@H](O[C@H]2[C@H](O)[C@@H](O)C(O)O[C@@H]2CO)[C@H](O)[C@@H](O)[C@@H]1O (mixture of isomers) [maltose] | the amount of products obtained from prematurely terminated synthesis became very small and full length products were synthesized | 
6 | Triton X100 |  | amount of incomplete reverse transcription products when added to the Lane 3 condition ([1]; 60° C., 0.05% Triton X100 plus 20% trehalose and 20% glycerol (Lane 4)): further reduced; effect on enzyme activity when added to the Lane 3 condition ([1]; 60° C., additive plus 20% trehalose and 20% glycerol, BSA 0.125 μg/μl (Lane 5), Triton X100 0.05% (Lane 4)): the whole activity of the reverse transcriptase was slightly reduced
7 | OC[C@@H](O)C(O)[C@H](O)CO [arabitol] | the amount of products obtained from prematurely terminated synthesis became very small and full length products were synthesized | 
8 | CNCC(=O)O [sarcosine] |  | thermal activation of restriction enzyme (relative activity of Sty I) [2]: thermally activated
9 | OC[C@H]1O[C@H](O[C@H]2O[C@H](CO)[C@@H](O)[C@H](O)[C@H]2O)[C@H](O)[C@@H](O)[C@@H]1O [trehalose] | the amount of products obtained from prematurely terminated synthesis became very small and full length products were synthesized | Superscript II activity compared with control reaction in standard buffer ([3]; normal temperature (42° C.), 20% (w/v) trehalose and 20% (v/v) glycerol): higher activity than the control reaction; electrophoretic pattern: products from premature termination of reverse transcription ([3]; reaction at 42° C., 20% trehalose and 20% glycerol (Lane 2)): products resulted from premature termination as mentioned above were also observed

Source: US20070238158A1, “Method for enhancing enzyme activity at elevated temperature” (The Institute of Physical and Chemical Research, priority 1996, published 2007)
